According to BigSolDB 2.1:

CONC(=O)Nc1ccc(-c2sc3c(c2CN(C)C)c(=O)n(-c2ccc(OC)nn2)c(=O)n3Cc2c(F)cccc2F)cc1
solubility (mole fraction)
Details | 298.15 K | 303.15 K | 308.15 K | 313.15 K | 318.15 K | 323.15 K
in acetonitrile | 0.000483 | 0.000585 | 0.000667 | 0.000752 | 0.000856 | 0.000999
in ethanol | 0.000134 | 0.000152 | 0.000171 | 0.000209 | 0.00025 | 0.000301
in ethyl acetate | 0.000368 | 0.0004 | 0.00045 | 0.000505 | 0.000539 | 0.000576
in isopropanol | 6.6e-05 | 8.3e-05 | 0.000103 | 0.000125 | 0.000153 | 0.000191
in methanol | 0.000438 | 0.00051 | 0.000578 | 0.000639 | 0.000713 | 0.000774
